The term IC50 denotes the concentration that inhibits the measured activity by half. Lower therefore signals higher potency.

The assay concerns the target T1, BCAT2 (Homo sapiens, UniProt O15382).
T1 sequence (O15382 28-392): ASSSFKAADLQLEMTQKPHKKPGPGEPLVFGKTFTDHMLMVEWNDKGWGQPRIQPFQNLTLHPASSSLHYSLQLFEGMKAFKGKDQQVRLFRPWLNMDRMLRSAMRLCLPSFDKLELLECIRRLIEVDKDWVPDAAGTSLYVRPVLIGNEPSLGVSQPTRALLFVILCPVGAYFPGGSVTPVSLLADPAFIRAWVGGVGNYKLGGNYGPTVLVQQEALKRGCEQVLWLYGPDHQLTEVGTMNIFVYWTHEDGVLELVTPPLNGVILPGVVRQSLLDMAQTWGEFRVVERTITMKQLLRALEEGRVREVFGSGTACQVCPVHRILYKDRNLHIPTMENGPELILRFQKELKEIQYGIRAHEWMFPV
Nature of the assay: BCAT2 in vitro enzyme inhibition assay (hBCAT2, glutamate dehydrogenase/diaphorase/resazurin coupled fluorescence read). The format is biochemical. Conditions: hBCAT2, 1 h preincubation at 25° C., one hour reaction; average where tested multiple times. The procedure: • 2×Buffer: 200 mM Tris pH 8.0, 300 mM NaCl, 0.1% BSA • 1.67×hBCAT2 Enzyme Mix: 0.33 μg/mL hBCAT2, 1× Buffer • 2.5×Substrate Mix: 460 µM L-leucine, 420 µM α-KetoGlutarate, 10 U/mL glutamate dehydrogenase, 10 mM NAD, […] diaphorase, […] Resazurin
BCAT2 enzyme stock solution was diluted to prepare a 1.67×hBCAT2 Enzyme Mix. 1 μL of test compound was first added to the reaction wells followed by 30 μL of 1.67×hBCAT2 Enzyme Mix and incubated at room temperature (25° C.) for one hour. Meanwhile the Substrate Mix was prepared. The reaction was initiated by the addition of 20 μL of the 2.5×Substrate Mix, bringing the final reaction mix of all components to 1×. Reactions were quenched after one hour by the addition of 25 μL of 6% SDS and reaction progress was measured via fluorescence read (Ex 540/Em 590).
Test compounds were prepared at 50×final concentration in DMSO, 1 to 3 dilutions were made for 10 points. The compounds were added to the assay as a 1 to 50 dilution (1 μL in 50 μL) to yield a top assay final concentration of 100 μM, decreasing 3-fold for 10 points. Each compound dilution series test also included an assay max (1 μL DMSO Added in lieu of compound, Full Reaction Components Included) and Min (1 μL DMSO Added in lieu of compound, 30 μl of 1.67×hBCAT2 Enzyme Mix replated by 30 μL of 1×Buffer). All tests were performed in technical duplicate.
Where a compound was tested multiple times, the average value of the tests is reported.
For orientation: The colour change of resazurin is a common sign of viable cells or microbes.
For `CN1C[C@H](N2Cc3ccc(F)cc3C2=O)C[C@H](n2c(-c3ccccc3OCCO)nc3cnc(-c4nc[nH]n4)cc32)C1` [Example 197, 6-fluoro-2-((3R,5S)-5-(2-(2-(2-hydroxyethoxy)phenyl)-6-(1H-1,2,4-triazol-3-yl)-1H-imidazo[4,5-c]pyridin-1-yl)-1-methylpiperidin-3-yl)isoindolin-1-one], the IC50 was less than 100 nM.

Compound `CN1CC(NC(=O)c2cc(Cl)ccc2F)CC(n2c(-c3ncccc3F)nc3cnc(-c4nc[nH]n4)cc32)C1` (stereo not drawn) [Example 147, 5-chloro-2-fluoro-N-(5-(2-(3-fluoropyridin-2-yl)-6-(1H-1,2,4-triazol-3-yl)-1H-imidazo[4,5-c]pyridin-1-yl)-1-methylpiperidin-3-yl)benzamide] registered an IC50 of 100 to 500 nM.

`CO[C@H]1C[C@H](NC(=O)c2cc(F)ccn2)C[C@H](n2c(-c3ccccc3OCCO)nc3ccc(-c4ncco4)cc32)C1` [Example 223, 4-fluoro-N-((1R,3S,5S)-3-(2-(2-(2-hydroxyethoxy)phenyl)-6-(oxazol-2-yl)-1H-benzo[d]imid-azol-1-yl)-5-methoxycyclohex-yl)picolinamide] yielded an IC50 of 100 to 500 nM.

`CN1C[C@@H](NC(=O)c2cc(F)ccc2F)C[C@@H](n2c(-c3ccccc3F)nc3cnc(-c4nc[nH]n4)cc32)C1` [Example 152, 2,5-difluoro-N-((3S,5R)-5-(2-(2-fluorophenyl)-6-(1H-1,2,4-triazol-3-yl)-1H-imidazo[4,5-c]pyridin-1-yl)-1-methylpiperidin-3-yl)benzamide] gave an IC50 of 100 to 500 nM.

Turning to `O=C(N[C@H]1CCC[C@@H](n2c(CCC3CCOC3)nc3cnc(-c4nc[nH]n4)cc32)C1)c1cc(Cl)ccn1` (stereo partly drawn) [Example 94, 4-chloro-N-((1S,3R)-3-(2-(2-(tetrahydrofuran-3-yl)ethyl)-6-(1H-1,2,4-triazol-3-yl)-1H-imidazo[4,5-c]pyridin-1-yl)cyclohexyl)picolinamide], the IC50 was more than 1000 nM.

`O=C(N[C@H]1CCC[C@@H](n2c(-c3ccccc3F)nc3cnc(-c4nc[nH]n4)cc32)C1)c1ccc(F)cc1F` [Example 75, 2,4-difluoro-N-((1S,3R)-3-(2-(2-fluorophenyl)-6-(1H-1,2,4-triazol-3-yl)-1H-imidazo[4,5-c]pyridin-1-yl)cyclohexyl)benzamide] gave an IC50 of less than 100 nM.

Take `O=C(N[C@H]1CCC[C@@H](n2c(-c3ncccc3F)nc3ccc(-c4nc[nH]n4)cc32)[C@@H]1O)c1cc(F)ccc1F` [Example 222, 2,5-difluoro-N-((1S,2R,3R)-3-(2-(3-fluoropyridin-2-yl)-6-(1H-1,2,4-triazol-3-yl)-1H-benzo[d]imidazol-1-yl)-2-hydroxycyclo-hexyl)benzamide]: the IC50 was 100 to 500 nM.

`O=C(N[C@H]1CCC[C@@H](n2c(-c3ccccc3OCCO)nc3ccc(-c4nc[nH]n4)cc32)C1)c1cc(F)ccc1F` [Example 228, 2,5-difluoro-N-((1S,3R)-3-(2-(2-(2-hydroxyethoxy)phenyl)-6-(1H-1,2,4-triazol-3-yl)-1H-benzo[d]imidazol-1-yl)cyclo-hexyl)benzamide] displayed an IC50 of less than 100 nM.

`COc1ccnc(C(=O)N[C@H]2CCC[C@@H](n3c(-c4ccccc4F)nc4cnc(-c5nc[nH]n5)cc43)C2)c1` [Example 60, N-((1S,3R)-3-(2-(2-fluorophenyl)-6-(1H-1,2,4-triazol-3-yl)-1H-imidazo[4,5-c]pyridin-1-yl)cyclohexyl)-4-methoxypicolinamide] had an IC50 of less than 100 nM.

In turn, `CO[C@H]1C[C@@H](NC(=O)c2cc(F)ccn2)C[C@@H](n2c(-c3ccccc3F)nc3cnc(-c4nc[nH]n4)cc32)C1` [Example 115, 4-fluoro-N-((1S,3R,5S)-3-(2-(2-fluorophenyl)-6-(1H-1,2,4-triazol-3-yl)-1H-imidazo[4,5-c]pyridin-1-yl)-5-methoxycyclohexyl)picolinamide] registered an IC50 of 100 to 500 nM.

In turn, `O=C(N[C@H]1CCC[C@@H](n2c(-c3ccccc3F)nc3cnc(-c4nc[nH]n4)cc32)C1)c1cc(Cl)cc[n+]1[O-]` [Example 67, 4-chloro-2-(((1S,3R)-3-(2-(2-fluorophenyl)-6-(1H-1,2,4-triazol-3-yl)-1H-imidazo[4,5-c]pyridin-1-yl)cyclohexyl)carbamoyl)pyridine 1-oxide] returned an IC50 of less than 100 nM.

`COc1ccc(F)cc1C(=O)N[C@H]1CCC[C@@H](n2c(-c3ccccc3F)nc3cnc(-c4nc[nH]n4)cc32)C1` [Example 8, 5-fluoro-N-((1S,3R)-3-(2-(2-fluorophenyl)-6-(1H-1,2,4-triazol-3-yl)-1H-imidazo[4,5-c]pyridin-1-yl)cyclohexyl)-2-methoxybenzamide] showed an IC50 of less than 100 nM.

Take `CN1C[C@@H](NC(=O)c2cc(F)ccn2)C[C@@H](n2c(-c3ccccc3OCCO)nc3cnc(-c4ncccn4)cc32)C1` [Example 162, 4-fluoro-N-((3S,5R)-5-(2-(2-(2-hydroxyethoxy)phenyl)-6-(pyrimidin-2-yl)-1H-imidazo[4,5-c]pyridin-1-yl)-1-methylpiperidin-3-yl)picolinamide]: the half-inhibitory concentration (IC50) lay in the range of 500 to 1000 nM.

In turn, `CN1C[C@H](NC(=O)c2cc(F)ccn2)C[C@H](n2c(-c3ccccc3OCCO)nc3ccc(-c4ncccn4)cc32)C1` [Example 236, 4-fluoro-N-((3R,5S)-5-(2-(2-(2-hydroxyethoxy)phenyl)-6-(pyr-imidin-2-yl)-1H-benzo[d]imid-azol-1-yl)-1-methylpiperidin-3-yl)picolinamide] registered an IC50 of 100 to 500 nM.

With `CN1C[C@@H](NC(=O)c2cc(F)ccn2)C[C@@H](n2c(-c3ccccc3OC(F)F)nc3cnc(-c4nc[nH]n4)cc32)C1` [compound 140], the IC50 is 500 to 1000 nM.

The compound `O=C(N[C@H]1CCC[C@@H](n2c(-c3ccccc3OC3CCOC3)nc3cnc(-c4nc[nH]n4)cc32)C1)c1cc(Cl)ccn1` (stereo partly drawn) [Example 87, 4-chloro-N-((1S,3R)-3-(2-(2-((tetrahydrofuran-3-yl)oxy)phenyl)-6-(1H-1,2,4-triazol-3-yl)-1H-imidazo[4,5-c]pyridin-1-yl)cyclohexyl)picolinamide] came in with an IC50 of more than 1000 nM.

`COc1ccnc(C(=O)N[C@H]2CCC[C@@H](n3c(-c4ncccc4OC(F)F)nc4cnc(-c5nc[nH]n5)cc43)C2)c1` [compound 64] had an IC50 of less than 100 nM.

`CC(C)Cc1nc2cnc(-c3nc[nH]n3)cc2n1[C@@H]1CCC[C@H](NC(=O)c2cc(Cl)ccc2OC2CC2)C1` [Example 79, 5-chloro-2-cyclopropoxy-N-((1S,3R)-3-(2-isobutyl-6-(1H-1,2,4-triazol-3-yl)-1H-imidazo[4,5-c]pyridin-1-yl)cyclohexyl)benzamide] showed a 50% inhibitory concentration (IC50) of less than 100 nM.

On to `O=C(N[C@H]1CCC[C@@H](n2c(-c3ncccc3OC(F)F)nc3cnc(-c4nc[nH]n4)cc32)C1)c1cc(Cl)ccn1` [compound 62], for which the IC50 is less than 100 nM.

Consider `NC(=O)c1ccccc1-c1nc2cnc(-c3nc[nH]n3)cc2n1[C@@H]1CCC[C@H](N2COc3ccc(Cl)cc3C2=O)C1` [Example 207, 2-(1-((1R,3S)-3-(6-chloro-4-oxo-2H-benzo[e][1,3]oxazin-3(4H)-yl)cyclohexyl)-6-(1H-1,2,4-triazol-3-yl)-1H-imidazo[4,5-c]pyridin-2-yl)benzamide], for which the IC50 was less than 100 nM.

The compound `CC(C)(Cc1nc2cnc(-c3nc[nH]n3)cc2n1[C@@H]1CCC[C@H](NC(=O)c2cc(Cl)ccn2)C1)C(N)=O` [Example 44, N-((1S,3R)-3-(2-(3-amino-2,2-dimethyl-3-oxopropyl)-6-(1H-1,2,4-triazol-3-yl)-1H-imidazo[4,5-c]pyridin-1-yl)cyclohexyl)-4-chloropicolinamide] registered an IC50 of more than 1000 nM.

For `CCN1C[C@@H](NC(=O)c2cc(F)ccn2)C[C@@H](n2c(-c3ccccc3F)nc3cnc(-c4nc[nH]n4)cc32)C1` [Example 149, N-((3S,5R)-1-ethyl-5-(2-(2-fluorophenyl)-6-(1H-1,2,4-triazol-3-yl)-1H-imidazo[4,5-c]pyridin-1-yl)piperidin-3-yl)-4-fluoropicolinamide], the half-inhibitory concentration (IC50) was in the range of 500 to 1000 nM.

Compound `CN1C[C@@H](NC(=O)c2cc(Cl)ccn2)C[C@@H](n2c(-c3ccccc3OCCO)nc3cnc(-n4nccn4)cc32)C1` [Example 156, 4-chloro-N-((3S,5R)-5-(2-(2-(2-hydroxyethoxy)phenyl)-6-(2H-1,2,3-triazol-2-yl)-1H-imidazo[4,5-c]pyridin-1-yl)-1-methylpiperidin-3-yl)picolinamide] gave an IC50 of more than 1000 nM.

Take `O=C(N[C@H]1CCC[C@@H](n2c(-c3ccccc3OC(F)F)nc3cnc(-c4nc[nH]n4)cc32)C1)c1cc(Cl)ccn1` [compound 52]: the IC50 was less than 100 nM.

For the origin of these results see patent publication US20260334439A1, “BCAT2 INHIBITORS” (Agios Pharmaceuticals, Inc., priority 2023, published 2026).
